Consider two compounds from patent publication US20220040141A1, “ULTRAPURE PHENOL COMPOSITIONS” (priority 2018, published 2022).

The nature of data set [1]: Physical properties of CBD and its oil compositions. The data set is classed as physicochemical. Particulars: isolate powder, about 99% pure CBD. The text has this: The highest purity CBD is known as an isolate. The clear oil, or distillate, goes through another purification process, where it is converted into powder using a solvent, for example, hexane, at low heat.
(§1) By mixing with fractionated coconut oil, or medium-chain triglyceride (MCT), a stable emulsion can be formed, which simplifies oral administration of CBD. Some products can mix the full spectrum CBD oil with alcohol or MCT oil, which is known as a tincture. […] For example, a batch of CBD/MCT oil was made using a ratio of 100 mg/ml, which allowed delivery as a spray to the mouth of 20 mg CBD per spray (one spray per serving). In another experiment, a second batch of oil targeted at 33 mg/ml, which targeted 6-7 mg per spray (2-3 sprays per serving). Performance can continue to be less impressive than the CBD powder.

Data set [2] can be described thus: Earlier CBD products (isolate powder, liquid CBD/vitamin E mixture, MCT emulsion) as used orally. The data set is classed as in vivo. The settings on record: particularly relieving stiffness in joints.
Description: Prior to preparing the compositions described herein, other CBD products were made, which include food products, including beverages, and mixtures with multiple components, such as an oil/liquid form that is taken directly from a dropper. The products can be flavored. A CBD isolate powder, which is a high purity CBD, can have powerful, and instant benefits. A water soluble CBD/vitamin E mixture can be included in food and drink such as cold pressed juice. […] However, the powder was difficult to work with and dose.
as §1

The conditions of data set [3]: increase of 1 mMol in plasma caprylic acid levels; cited from earlier work.

As for `C=C(C)[C@@H]1CCC(C)=C[C@H]1c1c(O)cc(CCCCC)cc1O` [CBD isolate powder, cannabidiol], in data set [1], the water solubility entry is “not water soluble”. The anti-inflammatory effect result in data set [2] is listed as “exhibited anti-inflammatory properties”.
`CCCCCCCC(=O)O` [caprylic acid]: the “increase of ketone body production” value in data set [3] is on record as “five-fold”.
